Tested on: p38-2
Assay: Immune complex kinase assay of HA-tagged p38-2 from transiently transfected COS cells, GST-ATF2 substrate
Format: cell-based, human
From the text: An expression vector encoding epitope-tagged p38-2 (3×HA-p38-2-SRα3) was constructed by adding sequence encoding three copies of a 10 amino acid hemagglutinin (HA) epitope to the N-terminus of p38-2 and ligating the resulting cDNA into the expression vector SRα3. To investigate the pattern of regulation of p38-2, COS cells were transiently transfected with HA-p38-2-SRα3 (as described above) by the DEAE-Dextran method (Kawai and Nishizawa, Mol. Cell. Biol. 4:1172–1174, 1984).
Following treatment, cell lysates were prepared by solubilization in lysis buffer as described (Derijard et al., Cell 76:1025–1037, 1994), and protein concentration of lysates was determined by Bradford assay (Bradford, Ann Biochem. 72:248–254, 1976). Cell lysates were used in an immune complex kinase assay with GST-ATF2 substrate, prepared as previously described (Gupta et al., Science 267:389–39, 1995). The assay was generally performed as described previously (Derijard et al., Cell 76:1025–1037, 1994; Lin et al., Science 268:286–290, 1995) with minor modifications. The concentration of [γ-^32P]ATP was 50 nM, and 30 μg cell lysate was immunoprecipitated for 2 hours with the anti-HA antibody 12CA5 (Boehringer-Mannheim Corp., Indianapolis, Ind.) and then incubated with 1 μg of recombinant substrate.

SMILES | increase in p38-2 activity (ATF2 phosphorylation) | induction of p38-2 (kinase activity, ATF2 phosphorylation) (COS cells transfected with HA-p38-2, anisomycin 50 ng/mL for 45 minutes)
[Cl-].[Na+] [NaCl] | No increase | –
COc1ccc(C[C@H]2NC[C@H](O)[C@H]2OC(C)=O)cc1 [anisomycin] | – | strong induction

From patent US7202049B2, “Mitogen-activated protein kinase p38-2 and methods of use therefor” (Signal Pharmaceuticals, Inc., priority 1996, dated 2007)
